Test results as given in ChEMBL document CHEMBL5236668, “Synthesis and biological evaluation of novel SN38-glucose conjugate for colorectal cancer treatment” (Bioorg Med Chem Lett, 2023).
In brackets after ≈: the same amount, converted by molar mass. Activity calls are given as the source filed them. No cut-off for these calls is given here.

Tests used:
[1] = system: SW480; assay: Anticancer activity against human SW480 cells assessed as inhibition of cell growth by MTT assay; assay type: functional, cell-based
[2] = system: HCT-116; assay: Anticancer activity against human HCT-116 cells assessed as inhibition of cell growth by MTT assay; assay type: functional, cell-based
[3] = Solubility of the compound in water; assay type: physicochemical
[4] = Solubility of the compound in 0.9% NaCl solution; assay type: physicochemical
[5] = Cytotoxicity against HEK293T cells assessed as inhibition of cell growth by MTT assay; assay type: toxicity, cell-based, HEK-293T; details: human
[6] = Cytotoxicity against human L02 cells assessed as inhibition of cell growth by MTT assay; assay type: toxicity, cell-based
[7] = system: SW480; assay: Antimigratory activity against human SW480 cells assessed as inhibition of cell migration by wound healing assay relative to control; assay type: functional; design: scale not given: the % may be the effect or the level left
[8] = system: HCT-116; assay: Induction of apoptosis in human HCT-116 cells assessed as viable cells at 25 uM by Annexin V-FITC staining based flow cytometry (reference value: 94.3%); assay type: functional; details: read-out: Activity
[9] = system: HCT-116; assay: Induction of apoptosis in human HCT-116 cells assessed as early apoptotic cells at 25 uM by Annexin V-FITC staining based flow cytometry (reference value: 1.46 %); assay type: functional
[10] = system: HCT-116; assay: Induction of apoptosis in human HCT-116 cells assessed as late apoptotic cells at 25 uM by Annexin V-FITC staining based flow cytometry (reference value: 3.51 %); assay type: functional
[11] = system: HCT-116; assay: Induction of apoptosis in human HCT-116 cells assessed as necrotic cells at 25 uM by Annexin V-FITC staining based flow cytometry (reference value: 0.73 %); assay type: functional
[12] = system: SW480; assay: Induction of apoptosis in human SW480 cells assessed as viable cells at 25 uM by Annexin V-FITC staining based flow cytometry (reference value: 89.3 %); assay type: functional; details: read-out: Activity
[13] = system: SW480; assay: Induction of apoptosis in human SW480 cells assessed as late apoptotic cells at 25 uM by Annexin V-FITC staining based flow cytometry (reference value: 5.12 %); assay type: functional
[14] = system: SW480; assay: Induction of apoptosis in human SW480 cells assessed as necrotic cells at 25 uM by Annexin V-FITC staining based flow cytometry (reference value: 3.05 %); assay type: functional
[15] = Toxicity in iv dosed nude mouse xenografted with human SW480 cells assessed as effect on body weight administered at 3 days intervals for 21 days; assay type: organism-based; details: in vivo, 504 h, time 21 day
[16] = Selectivity index, ratio of IC50 for cytotoxicity against human L02 cells to IC50 for anticancer activity against human HCT-116 cells; assay type: toxicity, cell-based; details: L02 cells and HCT-116 cells, read-out: Ratio IC50
[17] = Selectivity index, ratio of IC50 for cytotoxicity against human L02 cells to IC50 for anticancer activity against human SW480 cells; assay type: toxicity, cell-based; details: L02 cells and SW480 cells, read-out: Ratio IC50
[18] = Selectivity index, ratio of IC50 for cytotoxicity against HEK293T cells to IC50 for anticancer activity against human SW480 cells; assay type: toxicity, cell-based; details: HEK293T cells and SW480 cells, read-out: Ratio IC50
[19] = Selectivity index, ratio of IC50 for cytotoxicity against HEK293T cells to IC50 for anticancer activity against human HCT-116 cells; assay type: toxicity, cell-based; details: HEK293T cells and HCT-116 cells, read-out: Ratio IC50
[20] = system: HCT-116; assay: Antimigratory activity against human HCT-116 cells assessed as inhibition of cell migration by wound healing assay relative to control; assay type: functional; design: scale not given: the % may be the effect or the level left
[21] = system: SW480; assay: Inhibition of cell invasion in human SW480 cells by Boyden chamber invasion assay; assay type: functional, cell-based; details: dose 5-50 µM
[22] = system: HCT-116; assay: Inhibition of cell invasion in human HCT-116 cells by Boyden chamber invasion assay; assay type: functional, cell-based; details: dose 5-50 µM
[23] = system: SW480; assay: Induction of apoptosis in human SW480 cells assessed as blue chromatin condensation by Hoechst 33258 staining based analysis; assay type: functional, cell-based
[24] = system: HCT-116; assay: Induction of apoptosis in human HCT-116 cells assessed as blue chromatin condensation by Hoechst 33258 staining based analysis; assay type: functional, cell-based
[25] = system: SW480; assay: Induction of apoptosis in human SW480 cells assessed as appearance of paired apoptotic vesicles around the nucleus by Hoechst 33258 staining based analysis; assay type: functional, cell-based
[26] = system: HCT-116; assay: Induction of apoptosis in human HCT-116 cells assessed as appearance of paired apoptotic vesicles around the nucleus by Hoechst 33258 staining based analysis; assay type: functional, cell-based
[27] = system: SW480; assay: Induction of apoptosis in human SW480 cells assessed as appearance of wrinkled and round cells by Hoechst 33258 staining based analysis; assay type: functional, cell-based
[28] = system: HCT-116; assay: Induction of apoptosis in human HCT-116 cells assessed as appearance of wrinkled and round cells by Hoechst 33258 staining based analysis; assay type: functional, cell-based
[29] = system: SW480; assay: Induction of apoptosis in human SW480 cells assessed as early apoptotic cells at 25 uM by Annexin V-FITC staining based flow cytometry (reference value: 2.53 %); assay type: functional
[30] = system: SW480; assay: Antitumor activity against human SW480 cells xenografted in iv dosed mouse assessed as reduction in tumor volume administered at 3 days intervals for 21 days; assay type: functional, organism-based; details: dose 0.008-0.016 mmol/Kg, time 21.0 day
[31] = system: SW480; assay: Antitumor activity against human SW480 cells xenografted in mouse assessed as reduction in tumor weight at 0.008 to 0.016 mmol/Kg, iv administered at 3 days intervals for 21 days; assay type: functional, organism-based; details: dose 0.008-0.016 mmol/Kg, time 21.0 day
[32] = system: SW480; assay: Antitumor activity against human SW480 cells xenografted in mouse assessed as reduction in tumor growth at 0.008 to 0.016 mmol/Kg, iv administered at 3 days intervals for 21 days; assay type: functional, organism-based; details: dose 0.008-0.016 mmol/Kg, time 21.0 day
[33] = Toxicity in nude mouse xenografted with human SW480 cells assessed as effect on body weight at 0.008 to 0.016 mmol/Kg, iv administered at 3 days intervals for 21 days; assay type: organism-based; details: in vivo, 504 h, dose 0.008-0.016 mmol/Kg, time 21 day
[34] = Toxicity in nude mouse xenografted with human SW480 cells assessed as effect on albumin level at 0.016 mmol/Kg, iv administered at 3 days intervals for 21 days; assay type: organism-based; details: in vivo, 504 h, time 21 day
[35] = Toxicity in nude mouse xenografted with human SW480 cells assessed as effect on cholesterol level at 0.016 mmol/Kg, iv administered at 3 days intervals for 21 days; assay type: organism-based; details: in vivo, 504 h, time 21 day
[36] = Toxicity in nude mouse xenografted with human SW480 cells assessed as effect on creatinine level at 0.016 mmol/Kg, iv administered at 3 days intervals for 21 days; assay type: organism-based; details: in vivo, 504 h, time 21 day
[37] = Toxicity in nude mouse xenografted with human SW480 cells assessed as effect on total protein level at 0.016 mmol/Kg, iv administered at 3 days intervals for 21 days; assay type: organism-based; details: in vivo, 504 h, time 21 day
[38] = Toxicity in nude mouse xenografted with human SW480 cells assessed as effect on alanine transaminase level at 0.016 mmol/Kg, iv administered at 3 days intervals for 21 days; assay type: organism-based; details: in vivo, 504 h, time 21 day
[39] = Toxicity in nude mouse xenografted with human SW480 cells assessed as effect on blood urea nitrogen level at 0.016 mmol/Kg, iv administered at 3 days intervals for 21 days; assay type: organism-based; details: in vivo, 504 h, time 21 day
[40] = Toxicity in nude mouse xenografted with human SW480 cells assessed as effect on WBC level at 0.016 mmol/Kg, iv administered at 3 days intervals for 21 days by routine blood test; assay type: organism-based; details: in vivo, 504 h, time 21 day
[41] = Toxicity in nude mouse xenografted with human SW480 cells assessed as effect on MCV level at 0.016 mmol/Kg, iv administered at 3 days intervals for 21 days by routine blood test; assay type: organism-based; details: in vivo, 504 h, time 21 day
[42] = Toxicity in nude mouse xenografted with human SW480 cells assessed as effect on RBC level at 0.016 mmol/Kg, iv administered at 3 days intervals for 21 days by routine blood test; assay type: organism-based, Erythrocyte; details: in vivo, 504 h, time 21 day
[43] = Toxicity in nude mouse xenografted with human SW480 cells assessed as effect on hemoglobin level at 0.016 mmol/Kg, iv administered at 3 days intervals for 21 days by routine blood test; assay type: organism-based; details: in vivo, 504 h, time 21 day
[44] = Toxicity in nude mouse xenografted with human SW480 cells assessed as effect on MCH level at 0.016 mmol/Kg, iv administered at 3 days intervals for 21 days by routine blood test; assay type: organism-based; details: in vivo, 504 h, time 21 day
[45] = Toxicity in nude mouse xenografted with human SW480 cells assessed as effect on PDW at 0.016 mmol/Kg, iv administered at 3 days intervals for 21 days by routine blood test; assay type: organism-based; details: in vivo, 504 h, time 21 day
[46] = Solubility of the compound in Tween 80 solution; assay type: physicochemical

CCc1c2c(nc3ccc(OC(=O)N4CCC(N5CCCCC5)CC4)cc13)-c1cc3c(c(=O)n1C2)COC(=O)[C@]3(O)CC [IRINOTECAN]
IC50 [1]: 11.2 µM
IC50 [2]: 14.2 µM
solubility [3]: 5590 µg/mL (≈ 9530 µM)
solubility [4]: 1200 µg/mL (≈ 2050 µM)
IC50 [5]: 19.8 µM
IC50 [6]: 22.2 µM
Activity [7]: 74.5%
viability at 25 µM [8]: 92.5%
Activity [9]: 1.51%
Activity [10]: 6.15%
Activity [11]: 0.256%
viability at 25 µM [12]: 85%
Activity [13]: 10.7%
Activity [14]: 0.871%
Activity [15]: Non-Toxic

CCc1c2c(nc3ccc(OC(=O)NCCOCc4cn(CCO[C@H]5O[C@@H](CO)[C@H](O)[C@@H](O)[C@@H]5O)nn4)cc13)-c1cc3c(c(=O)n1C2)COC(=O)[C@]3(O)CC
IC50 [1]: 0.16 µM
IC50 [2]: 0.27 µM
solubility [3]: 2530 µg/mL (≈ 3300 µM)
IC50 [5]: 19.8 µM
IC50 [6]: 1.54 µM
selectivity ratio [16]: 5.7
selectivity ratio [17]: 9.62
selectivity ratio [18]: 124
selectivity ratio [19]: 73.5
Activity [20]: 20.1%
Activity [7]: 26.7%
inhibition [21]: Dose-Dependent Effect
inhibition [22]: Dose-Dependent Effect
Activity [23]: Active
Activity [24]: Active
Activity [25]: Active
Activity [26]: Active
Activity [27]: Active
Activity [28]: Active
viability at 25 µM [8]: 80.1%
Activity [9]: 3.67%
Activity [10]: 14.1%
Activity [11]: 2.2%
viability at 25 µM [12]: 50%
Activity [29]: 6%
Activity [13]: 38.7%
Activity [14]: 5.33%
Activity [30]: Dose-Dependent Effect
Activity [31]: Active
Activity [32]: Active
Activity [33]: Non-Toxic
Activity [34]: Non-Toxic
Activity [35]: Non-Toxic
Activity [36]: Non-Toxic
Activity [37]: Non-Toxic
Activity [38]: Non-Toxic
Activity [39]: Non-Toxic
Activity [40]: Non-Toxic
Activity [41]: Non-Toxic
Activity [42]: Non-Toxic
Activity [43]: Non-Toxic
Activity [44]: Non-Toxic
Activity [45]: Non-Toxic

CCc1c2c(nc3ccc(O)cc13)-c1cc3c(c(=O)n1C2)COC(=O)[C@]3(O)CC [7-ETHYL-10-HYDROXYCAMPTOTHECIN]
solubility [3]: 7.74 µg/mL (≈ 19.7 µM)
solubility [4]: 17.6 µg/mL (≈ 45 µM)
solubility [46]: 77.4 µg/mL (≈ 197 µM)
